The target of the assay is integrin αvβ3 (Homo sapiens, UniProt P05106+P06756). Briefly: Whole-cell integrin αvβ3 competitive displacement assay against ^125I-c. Type of assay: binding.

Structures are written as SMILES.

The term IC50 denotes the concentration that gives 50% inhibition. A high value points to weaker potency in that assay.

Turning to `N=C(N)NCCC[C@@H]1NC(=O)[C@H](CCCCNC(=O)CCOCCOCCOCCOCCNC(=O)CN2CCN(CC(=O)O)CCN(CC(=O)O)CCN(CC(=O)O)CC2)NC(=O)[C@@H](Cc2ccccc2)NC(=O)[C@H](CC(=O)O)NC(=O)CNC1=O` [DOTA-P-RGD, DOTA-PEG4-c(RGDfK)], the IC50 was 44.3 ± 3.5 nM.
